Assay results reported in ChEMBL document CHEMBL1125682, “Novel synthesis and biochemical properties of an [125I]-labeled photoaffinity probe for thromboxane A2/prostaglandin H2 receptors” (J Med Chem, 1991).

How the values were obtained:
[1] = target: T1, Thromboxane A2 receptor (Homo sapiens, UniProt P21731); experiment: Binding affinity towards Thromboxane A2/ Prostaglandin H2 receptor in human platelet membranes using [125I]- as the radioligand.; type: cell membranes
T1 sequence (P21731 whole entry): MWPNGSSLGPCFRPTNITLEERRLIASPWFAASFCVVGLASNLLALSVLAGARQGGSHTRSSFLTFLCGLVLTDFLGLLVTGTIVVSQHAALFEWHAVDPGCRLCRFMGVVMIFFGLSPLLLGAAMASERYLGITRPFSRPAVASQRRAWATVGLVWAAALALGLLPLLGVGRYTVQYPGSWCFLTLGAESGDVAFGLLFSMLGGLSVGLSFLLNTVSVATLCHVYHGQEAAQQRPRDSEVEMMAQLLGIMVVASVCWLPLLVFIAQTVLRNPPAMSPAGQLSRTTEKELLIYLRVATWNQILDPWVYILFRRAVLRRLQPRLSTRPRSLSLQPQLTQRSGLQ

[2] = target: T1, Thromboxane A2 receptor; experiment: Binding affinity towards Thromboxane A2 receptor/Prostaglandin receptor in human platelet membranes using [125I]- as the radioligand; type: cell membranes

| IC50 [1] | IC50 [2] | SMILES |
| --- | --- | --- |
| 11.2 nM | – | O=C(O)C[C@@H]1CCCc2c1n(Cc1ccc(Cl)cc1)c1ccc(F)cc21 (stereo in doubt; L-657925) |
| 1500 nM | – | O=C(O)C[C@@H]1CCCc2c1n(Cc1ccc(Cl)cc1)c1ccc(F)cc21 (stereo in doubt; L-657926) |
| – | 50 nM | O=C(O)CCC/C=C\C[C@@H]1[C@@H](/C=C/[C@@H](O)COc2ccc(I)cc2)[C@H]2CC[C@@H]1O2 |
